This test concerns Dogs. Put plainly: Effect on dog intraocular pressure, applanation pneumatonometry. To be noted: for time (Hr) of IOP max % decrease / time (Hr) of IOP max mmHg / IOP max mmHg / IOP max % decrease: 25 μl to the ocular surface, concentration 0.03%; for IOP max mmHg / IOP max % decrease: at the time of maximum given in the cell; for IOP max % decrease: vehicle 0.1% polysorbate 80 and 10 mM TRIS base; for ocular hypotensive effect in dogs: topical ocular administration, result in words. The format is in vivo. As for the experimental part:
The compounds were prepared at the said concentrations in a vehicle comprising 0.1% polysorbate 80 and 10 mM TRIS base. Dogs were treated by administering 25 μl to the ocular surface, the contralateral eye received vehicle as a control. Intraocular pressure was measured by applanation pneumatonometry. […]

We go through seven molecules from patent publication US6706755B2, “Cyclopentane heptan(ene) acyl sulfonamide, 2-alkyl or 2-arylalkyl, or 2-heteroarylalkenyl derivatives as therapeutic agents” (Allergan, Inc., priority 2001, dated 2004).

For `Cc1sc(CC[C@H](O)/C=C/[C@@H]2[C@@H](C/C=C\CCCC(=O)NS(C)(=O)=O)[C@@H](O)C[C@H]2O)cc1Cl` [Compound 9b, N-((Z)-7-{(1R,2R,3R,5S)-2-[(S)-(E)-5-(4-Chloro-5-methylthiophen-2-yl)-3-hydroxypent-1-enyl]-3,5-dihydroxycyclopentyl}hept-5-enoyl)methanesulfonamide], the “time (Hr) of IOP max % decrease” value amounted to 96 h, the “time (Hr) of IOP max mmHg” value is 96 h, the “IOP max mmHg” value was −4.9 mmHg and the “IOP max % decrease” value is −26.5%. Moreover, the “ocular hypotensive effect in dogs” value was “pronounced ocular hypotensive effect”.
As to `CS(=O)(=O)NC(=O)CCC/C=C\C[C@@H]1[C@@H](/C=C/[C@@H](O)CCc2ccc(Cl)s2)[C@H](O)C[C@@H]1O` [Compound 9c], the “time (Hr) of IOP max % decrease” value was determined as 102 h, the “time (Hr) of IOP max mmHg” value stood at 102 h, the “IOP max mmHg” value was −4.2 mmHg and the “IOP max % decrease” value is recorded as −23.8%. The “ocular hypotensive effect in dogs” value is given as “pronounced ocular hypotensive effect”.
Consider `Cc1sc(CC[C@H](O)/C=C/[C@@H]2[C@@H](C/C=C\CCCC(=O)NS(=O)(=O)c3ccccc3)[C@@H](O)C[C@H]2O)cc1Cl` [Compound 19b], for which the “time (Hr) of IOP max % decrease” value amounted to 74 h, the “time (Hr) of IOP max mmHg” value stood at 74 h, the “IOP max mmHg” value was −2.6 mmHg and the “IOP max % decrease” value is on record as −13.0%. Further, the “ocular hypotensive effect in dogs” value is “pronounced ocular hypotensive effect”.
As to `CCS(=O)(=O)NC(=O)CCC/C=C\C[C@@H]1[C@@H](/C=C/[C@@H](O)CCc2cc(C)c(Br)s2)[C@H](O)C[C@@H]1O` [Compound 10a, Ethanesulfonic acid ((Z)-7-{(1R,2R,3R,5S)-2-[(S)-(E)-5-(5-bromo-4-methylthiophen-2-yl)-3-hydroxypent-1-enyl]-3,5-dihydroxycyclopentyl}hept-5-enoyl)amide], the “time (Hr) of IOP max % decrease” value worked out at 4 h, the “time (Hr) of IOP max mmHg” value is 4 h, the “IOP max mmHg” value is −5.1 mmHg and the “IOP max % decrease” value is on record as −24.9%. Besides, the “ocular hypotensive effect in dogs” value was “pronounced ocular hypotensive effect”.
With `Cc1cc(CC[C@H](O)/C=C/[C@@H]2[C@@H](C/C=C\CCCC(=O)N(COC(=O)C(C)(C)C)S(C)(=O)=O)[C@@H](O)C[C@H]2O)sc1Br` [Compound 18a], the “time (Hr) of IOP max % decrease” value is 24 h, the “time (Hr) of IOP max mmHg” value is 24 h, the “IOP max mmHg” value was −3.9 mmHg and the “IOP max % decrease” value was −22.0%. Besides, the “ocular hypotensive effect in dogs” value was “pronounced ocular hypotensive effect”.
Take `Cc1cc(CC[C@H](O)/C=C/[C@@H]2[C@@H](C/C=C\CCCC(=O)NS(C)(=O)=O)[C@@H](O)C[C@H]2O)sc1Br` [Compound 9a, N-((Z)-7-{(1R,2R,3R,5S)-2-[(S)-(E)-5-(5-Bromo-4-methylthiophen-2-yl)-3-hydroxypent-1-enyl]-3,5-dihydroxycyclopentyl}hept-5-enoyl)methanesulfonamide]: the “time (Hr) of IOP max % decrease” value was found to be 72 h, the “time (Hr) of IOP max mmHg” value came to 72 h, the “IOP max mmHg” value is −2.8 mmHg and the “IOP max % decrease” value is −13.6%. For the same molecule, the “ocular hypotensive effect in dogs” value is “pronounced ocular hypotensive effect”.
Take `CS(=O)(=O)NC(=O)CCC/C=C\C[C@@H]1[C@@H](/C=C/[C@@H](O)CCc2ccc(Br)s2)[C@H](O)C[C@@H]1O` [Compound 9e]: the “time (Hr) of IOP max % decrease” value worked out at 100 h, the “time (Hr) of IOP max mmHg” value amounted to 100 h, the “IOP max mmHg” value is −2.0 mmHg and the “IOP max % decrease” value is −11.7%. The “ocular hypotensive effect in dogs” value is “pronounced ocular hypotensive effect”.
